{"source": "ChEMBL document CHEMBL6127129", "about": "(J Nat Prod, 2024)", "biological_target": "Estrogen receptor beta (Homo sapiens, UniProt Q92731)", "sequence (Q92731 whole entry)": "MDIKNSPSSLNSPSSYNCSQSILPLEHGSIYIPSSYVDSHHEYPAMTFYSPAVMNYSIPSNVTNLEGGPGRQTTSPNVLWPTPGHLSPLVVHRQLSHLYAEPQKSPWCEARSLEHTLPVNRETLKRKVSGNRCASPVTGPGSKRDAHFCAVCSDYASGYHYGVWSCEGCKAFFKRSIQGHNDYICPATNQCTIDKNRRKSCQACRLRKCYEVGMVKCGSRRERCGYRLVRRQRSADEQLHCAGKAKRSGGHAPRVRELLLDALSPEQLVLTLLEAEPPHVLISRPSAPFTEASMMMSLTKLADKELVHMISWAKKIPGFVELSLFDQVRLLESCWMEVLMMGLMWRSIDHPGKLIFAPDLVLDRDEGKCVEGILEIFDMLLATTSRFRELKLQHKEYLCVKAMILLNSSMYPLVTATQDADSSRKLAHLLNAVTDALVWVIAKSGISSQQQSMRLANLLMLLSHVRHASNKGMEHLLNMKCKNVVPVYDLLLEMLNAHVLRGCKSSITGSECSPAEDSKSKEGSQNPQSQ", "description": "Antagonist activity at human ER-beta transfected in human HepG2 cells incubated for 24 hrs by 3xERE-driven luciferase reporter assay"}
{"smiles": "C=CCc1ccc(OC(=O)CCC)c(-c2ccc(O)c(CC=C)c2)c1", "values": [{"measurement": "IC50", "value": 1320, "unit": "µM"}]}
